Data reported in patent US20080026088A1, “Reduced isoalpha acid based protein kinase modulation cancer treatment” (Metaproteomics, LLC, priority 2006, published 2008).
In brackets after ≈: the same amount, converted by molar mass. Where two headings read alike, the source gives them in different places. Marks after values point to notes of the source that are not given here.

What was measured:
[1] = tested on: LPS-treated 3T3-L1 adipocytes; test: Adiponectin secretion in LPS/3T3-L1 adipocytes; format: cell-based, murine; details: for Maximum adiponectin stimulation: 100 ng/ml LPS, D5 3T3-L1; for Concentration of maximum stimulation of adiponectin secretion: LPS/3T3-L1 adipocytes; for Emax: Mus musculus, 3T3-L1, at the concentration of maximum stimulation (c1), NS = not significantly different from the LPS control
[2] = tested on: LPS-stimulated 3T3-L1 adipocytes; test: IL-6 secretion in LPS/3T3-L1 adipocytes; format: cell-based, murine; details: 100 ng LPS/ml, D5 3T3-L1 adipocytes
[3] = tested on: insulin-resistant 3T3-L1 adipocytes; test: Adiponectin secretion from insulin-resistant 3T3-L1 adipocytes; format: cell-based, murine; details: for Adiponectin/IL-6: ratio of Adiponectin Index to IL-6 Index, insulin-resistant 3T3-L1 adipocytes; for EC50: Mus musculus; for Maximum Adiponectin Secretion: estimated from the y-intercept of Hofstee plots; for dose at which maximal adiponectin secretion was observed: of four doses tested
[4] = tested on: NF-kBp65 nuclear translocation; test: Nuclear NF-kBp65 (TransAM) in TNFα-treated 3T3-L1 adipocytes; format: cell-based, murine; details: for inhibition of nuclear translocation of NF-kBp65 / inhibition at 5 µg/mL: 5.0 μg/ml; for inhibition at […] / inhibition at 5 µg/mL: Mus musculus; for inhibition at […]: 2.5 μg/ml
Experimental: Cell Culture and Treatment—Following differentiation 3T3-L1 adipocytes were maintained in post-differentiation medium for an additional 40 days. […] Hops derivatives and the positive control pioglitazone were tested at concentrations of 2.5, and 5.0 μg/ml. Test materials were added 1 hour prior to and nuclear extracts were prepared three and 24 hours following treatment with TNFα.
ELISA—3T3-L1 adipocytes were maintained in growth media for 40 days following differentiation. Nuclear NF-kBp65 was determined using the TransAM™ NF-kB kit from Active Motif (Carlsbad, Calif.) was used with no modifications. Jurkat nuclear extracts provided in the kit were derived from cells cultured in medium supplemented with 50 ng/ml TPA (phorbol, 12-myristate, 13 acetate) and 0.5 μM calcium ionophore A23187 for two hours at 37° C. immediately prior to harvesting.
Protein assay—Nuclear protein was quantified using the Active Motif Fluorescent Protein Quantification Kit.

[5] = tested on: TNFα-treated 3T3-L1 adipocytes; test: Adiponectin secretion from TNFα-treated 3T3-L1 adipocytes; format: cell-based, murine
Experimental: For two days, the cells were allowed grow to reach confluence. […] (3) 0.5 μM dexamethasone and (4) 10 μg/ml insulin (MDI medium). […] Adiponectin Assay—The adiponectin secreted into the medium was quantified using the Mouse Adiponectin Quantikine® Immunoassay kit with no modifications (R&D Systems, Minneapolis, Minn.). […] Statistical Calculations and Interpretation—All assays were preformed in duplicate. […] Differences among the doses and test agents were determined using the Student's t-test without correction for multiple comparisons; the nominal five percent probability of a type I error was selected.

[6] = tested on: TNFα-treated 3T3-L1 adipocytes; test: IL-6 secretion from TNFα-treated 3T3-L1 adipocytes; format: cell-based, murine; details: for IL-6 Index: D5 3T3-L1 adipocytes, indexed to TNFα control
[7] = Non-fasting serum glucose and insulin in db/db diabetic mice; format: in vivo, mouse; details: three consecutive days
Experimental: The Model—Male, C57BLKS/J m^+/m^+Lepr^db (db/db) mice were used to assess the potential of the test materials to reduce fasting serum glucose or insulin concentrations. This strain of mice is resistant to leptin by virtue of the absence of a functioning leptin receptor.
Testing Procedure—Test substances were administered daily by gavage in 0.2% Tween-80. Serum was collected from the retroorbital sinus before the initial dose and ninety minutes after the third and final dose. Non-fasting serum glucose was determined enzymatically by the mutarotase/glucose oxidase method and serum insulin was determined by a mouse specific ELISA.
The Model—Male, C57BLKS/J m+/m+ Leprdb (db/db) mice were used to assess the potential of the test materials to reduce fasting serum glucose or insulin concentrations. This strain of mice is resistant to leptin by virtue of the absence of a functioning leptin receptor.
Testing Procedure—Test substances were administered daily by gavage in 0.2% Tween-80. Serum was collected from the retroorbital sinus before the initial dose and ninety minutes after the fifth and final dose. Non-fasting serum glucose was determined enzymatically by the mutarotase/glucose oxidase method and serum insulin was determined by a mouse specific ELISA.

3T3-L1 adipocytes = test: Lipogenesis (Oil Red O / BODIPY) in 3T3-L1 adipocytes; format: cell-based, murine; details: 50 μg test material/ml
Experimental: Prior to experiments, cells were cultured in DMEM containing 10% FBS-HI added 50 units penicillin/ml and 50 μg streptomycin/ml, and maintained in log phase prior to experimental setup. Cells were grown in a 5% CO2 humidified incubator at 37° C. Components of the pre-confluent medium included (1) 10% FBS/DMEM containing 4.5 g glucose/L; (2) 50 U/ml penicillin; and (3) 50 μg/ml streptomycin. Growth medium was made by adding 50 ml of heat inactivated FBS and 5 ml of penicillin/streptomycin to 500 ml DMEM. This medium was stored at 4° C. Before use, the medium was warmed to 37° C. in a water bath.
3T3-T1 cells were seeded at an initial density of 6×10^4 cells/cm^2 in 24-well plates. For two days, the cells were allowed grow to reach confluence. […]
Oil Red O Staining—Triglyceride content of D6/D7-differentiated 3T3-L1 cells was estimated with Oil Red O according to the method of Kasturi and Joshi [Kasturi, R. and Joshi, V. C. […] The resulting stained oil droplets were extracted from the cells with isopropanol and quantified by spectrophotometric analysis at 540 nm (MEL312e BIO-KINETICS READER, Bio-Tek Instruments, Winooski, Vt.). […]

[8] = Collagen induced rheumatoid arthritis murine model; format: in vivo, mouse; details: 10 mg/kg
[9] = tested on: RL 95-2 endometrial cancer cells; test: Cancer cell proliferation, CyQuant; format: cell-based; details: Homo sapiens, RL95-2; 10 μg/ml, 72 hours; read-out: inhibition of cell proliferation relative to the DMSO solvent control
Experimental: Methods—The inhibitory effects of test compounds of the present invention on cancer cell proliferation were examined in the RL 95-2 endometrial cancer cell model (an over expressor of AKT kinase), and in the HT-29 (constitutively expressing COX-2) and SW480 (constitutively expressing activated AKT kinase) colon cancer cell models. Briefly, the target cells were plated into 96 well tissue culture plates and allowed to grow until subconfluent. The cells were then treated for 72 hours with various amounts of the test compounds as described in Example 4 and relative cell proliferation determined by the CyQuant (Invitrogen, Carlsbad, Calif.) commercial fluorescence assay.

[10] = tested on: A549 pulmonary epithelial cells; test: Mite dust allergen stimulated PGE2 biosynthesis in A549 cells; format: cell-based, human; details: 10 μg/ml, added 60 min before mite dust allergen 1000 ng/ml, 18 h
From the text: Mite dust allergen isolation—Dermatophagoides farinae is the American house dust mite. D. farinae were raised on a 1:1 ratio of Purina Laboratory Chow (Ralston Purina, Co, St. Louis, Mo.) and Fleischmann's granulated dry yeast (Standard Brands, Inc. New York, N.Y.) at room temperature and 75% humidity. Live mites were aspirated from the culture container as they migrated from the medium, killed by freezing, desiccated and stored at 0% humidity. The allergenic component of the mite dust was extracted with water at ambient temperature. Five-hundred mg of mite powder were added to 5 ml of water (1:10 w/v) in a 15 ml conical centrifuge tube (VWR, Rochester, N.Y.), shaken for one minute and allowed to stand overnight at ambient temperature. The next day, the aqueous phase was filtered using a 0.2 μm disposable syringe filter (Nalgene, Rochester, N.Y.). The filtrate was termed mite dust allergen and used to test for induction of PGE2 biosynthesis in A549 pulmonary epithelial cells.
Cell culture and treatment—The human airway epithelial cell line, A549 (American Type Culture Collection, Bethesda, Md.) was cultured and treated as previously described in Example 6. Mite allergen was added to the culture medium to achieve a final concentration of 1000 ng/ml. Eighteen hours later, the media were sampled for PGE2 determination.

[11] = Mus musculus, 3T3-L1, 1.0 μg/ml, with 10 ng TNFα/ml, read-out: % Inhibition of IL-6 secretion
[12] = 3T3-L1, 3 h, three hours post TNFα

For `CC(=O)Oc1ccccc1C(=O)O` [Aspirin], the Maximum adiponectin stimulation [1] was “failed to induce adiponectin secretion”, the “Concentration of maximum stimulation of adiponectin secretion” value (from here on “Concentration … of adiponectin secretion”) [1] was 113 µg/mL and the Emax [1] was < 7%. For the same compound, the “Concentration providing the maximum inhibition of IL-6 secretion” value [2] was 25.0 µg/mL.
For `CC(C)CCC1=C(O)C(C(=O)C(C)C)=C(O)C(CCC(C)C)(CCC(C)C)C1=O` [Hexahydrocolupulone (HHCL)], the Adiponectin/IL-6 ([3]; 50.0 μg/ml) was 0.60#.
`COc1ccc2c(c1)c(CC(=O)O)c(C)n2C(=O)c1ccc(Cl)cc1` [Indomethacin, indomethacin] gave a Maximum adiponectin stimulation [1] of 9%.
In the case of `CCc1ccc(CCOc2ccc(CC3SC(=O)NC3=O)cc2)nc1` (centres unmarked) [Pioglitazone], the “inhibition of nuclear translocation of NF-kBp65” value ([4]; 24 hours post TNFα) is reported as “did not inhibit”, the “inhibition of nuclear translocation of NF-kBp65” value ([4]; three hours post TNFα) is reported as “did not inhibit” and the Maximum adiponectin stimulation [1] is reported as 12%. The “Concentration … of adiponectin secretion” value [1] was 1.25 µg/mL, the Emax [1] was 12% and the “Concentration of maximum adiponectin secretion” value ([5]; 10 ng TNFα/ml) was 1.25 µg/mL. For the same compound, the “maximum increase of adiponectin secretion over the TNFα control” value ([5]; 10 ng TNFα/ml) was 80%, the “Adiponectin Index Observed” value ([5]; 1.0 μg/ml, TNFα/3T3-L1 model, indexed to TNFα control (Table 26)) was 1.80 and the “Concentration of maximum adiponectin secretion” value ([5]; Table 16, 10 ng TNFα/ml) was 1.25 µg/mL. The “Adiponectin Index” value ([5]; Table 16, maximum over four doses, 10 ng TNFα/ml) was 1.47 and the “Concentration providing the maximum inhibition of IL-6 secretion” value [2] was 5.00 µg/mL.
`Cc1c(C)c2c(c(C)c1O)CCC(C)(COc1ccc(CC3SC(=O)NC3=O)cc1)O2` (centres unmarked) [Troglitazone] showed an inhibition at 1 µg/mL ([6]; Mus musculus, 3T3-L1, 1 μg/ml, 10 ng TNFα/ml, read-out: inhibition of IL-6 secretion relative to the controls) of 34%, an inhibition at 1 µg/mL [6, 11] of 34% and an Adiponectin/IL-6 ([3]; 5.0 μg/ml) of 1.12. The EC50 ([3]; 3T3-L1, half maximal adiponectin secretion, estimated from the slope of Hofstee plots, insulin-resistant 3T3-L1 cells, read-out: Test Material at Half Maximal Secretion) was 0.085 µg/mL (≈ 0.193 µM), the EC50 ([3]; 3T3-L1, slope of modified Hofstee plot, read-out: concentration required for half maximal adiponectin secretion) was 0.085 µg/mL (≈ 0.193 µM) and the “Maximum Adiponectin Secretion” value ([3]; insulin-resistant 3T3-L1 cells) was 2.29 Fold relative to control. For the same compound, the “Maximum adiponectin secretion estimated from the y-intercept” value ([3]; modified Hofstee plot) was 2.29 fold, the Maximum adiponectin stimulation [1] was 15% and the “Concentration … of adiponectin secretion” value [1] was 0.625 µg/mL. The Emax [1] was 15%, the “Concentration of maximum adiponectin secretion” value ([5]; 10 ng TNFα/ml) was 0.625 µg/mL and the “maximum increase of adiponectin secretion over the TNFα control” value ([5]; 10 ng TNFα/ml) was 51%. For the same compound, the “Concentration providing the maximum inhibition of IL-6 secretion” value [2] was 10.0 µg/mL.
In the case of `CC(C)CCC1=C(O)C(C(=O)C(C)C)=C(O)C(CCC(C)C)(CCC(C)C)C1=O` [hexahydro colupulone, hexahydrocolupulone], the “Maximum Adiponectin Secretion” value ([3]; insulin-resistant 3T3-L1 cells) is reported as 1.83 Fold relative to control, the “dose at which maximal adiponectin secretion was observed” value [3] is reported as 12.5 µg/mL and the “concentration required for half maximal adiponectin secretion” value ([3]; slope of modified Hofstee plot) is reported as 3.2 µg/mL.
With `CC(C)Cc1ccc(C(C)C(=O)O)cc1` (centres unmarked) [ibuprofen] the Maximum adiponectin stimulation [1] was 22%, the “Concentration … of adiponectin secretion” value [1] was 0.625 µg/mL and the Emax [1] was 22%. For the same compound, the “Concentration providing the maximum inhibition of IL-6 secretion” value [2] was 0.625 µg/mL.
With `CN(C)C(=N)N=C(N)N` [metformin, Metformin] the “reduction in serum insulin” value [7] was 17%, the “IL-6 Index” value ([6]; 1.0 μg/ml, with 10 ng TNFα/ml) was 0.91 and the “IL-6 Index” value ([6]; 5.0 μg/ml, with 10 ng TNFα/ml) was 0.96. The “IL-6 Index” value ([6]; 10 μg/ml, with 10 ng TNFα/ml) was 0.78, the “IL-6 Index” value ([6]; 50 μg/ml, with 10 ng TNFα/ml) was 0.78 and the inhibition at 1 µg/mL [6, 11] was 9%. For the same compound, the inhibition at 5 µg/mL ([6]; Mus musculus, 3T3-L1, 5.0 μg/ml, with 10 ng TNFα/ml) was 4%, the inhibition at 10 µg/mL ([6]; Mus musculus, 3T3-L1, 10 μg/ml, with 10 ng TNFα/ml) was 22% and the inhibition at 50 µg/mL ([6]; Mus musculus, 3T3-L1, 50 μg/ml, with 10 ng TNFα/ml) was 22%. The “lipogenic index (observed)” value (3T3-L1 adipocytes) was 0.79.
With `C[C@]12C=CC(=O)C=C1CC[C@@H]1[C@@H]2[C@@H](O)C[C@@]2(C)[C@H]1CC[C@]2(O)C(=O)CO` [prednisolone] the “days with significant reduction of arthritic index” value [8] was 30 to 42 days.
For `O=C(O)c1ccccc1O` [salicylic acid], the Maximum adiponectin stimulation [1] was “failed to induce adiponectin secretion”, the “Concentration … of adiponectin secretion” value [1] was 173 µg/mL and the Emax [1] was < 7%. For the same compound, the “Concentration providing the maximum inhibition of IL-6 secretion” value [2] was 50.0 µg/mL.
With `COc1cc(O)c(CC=C(C)C)c(O)c1C(=O)/C=C/c1ccc(O)cc1` [xanthohumol] the inhibition at […] [4, 12] was 6.9%, the inhibition at 5 µg/mL [4, 12] was 15.6% and the inhibition at […] ([4]; 3T3-L1, 24 hours post TNFα) was 8%. The inhibition at 5 µg/mL ([4]; 3T3-L1, 24 hours post TNFα) was 13.4%, the inhibition at 10 µg/mL [9] was > 50% and the “dose at which maximal adiponectin secretion was observed” value [3] was 1.25 µg/mL.
With Beta acids the “Percent PGE2 Inhibition” value [10] was 83%.
